These molecules were tested on CHO (assay: Cytotoxicity against CHO cells by MTT assay). Conditions: Cricetulus griseus.
Type: cell-based
In the case of `CC[C@H]1CN2CCc3cc(OC)c(OC)cc3[C@@H]2C[C@@H]1C[C@H]1NCCc2cc(OC)c(OC)cc21` [EMETINE], the IC50 is reported as 129 nM.

Source: ChEMBL document CHEMBL2412968, “Tetrazole-based deoxyamodiaquines: synthesis, ADME/PK profiling and pharmacological evaluation as potential antimalarial agents” (Bioorg Med Chem, 2013)
